The results in this text go back to patent US20250002493A1, “PYRIDONE COMPOUND AND PREPARATION METHOD THEREFOR, PHARMACEUTICAL COMPOSITION AND USE” (NANJING CHINA-AUSTRALIA INSTITUTE OF TRANSLATIONAL MEDICINE …, priority 2022, published 2025).

SMILES strings stand for the structures.

Test [1] has as its target BIR3 domain of human XIAP (residues 238-358) (Homo sapiens (Human), UniProt P98170). As to the kind of experiment: Fluorescence polarization competitive binding to XIAP BIR3. Particulars: FP, peptide probe 5 nM, XIAP BIR3 30 nM, 1 hour room temperature. On the procedure: (§1) The binding affinity of the compounds provided by the present invention to IAP proteins was determined using a fluorescence polarization method (Nikolovska-Colesak et al, Anal. Biochem. 2004, 332:261-73). The recombinant BIR3 domains of human XIAP (residues 238-358), human cIAP1 (residues 255-364) and human cIAP2 (residues 236-342) fusing GST-tags were expressed in E. coli and purified using glutathione agarose 4B affinity chromatography and gel filtration chromatography. A 5-Fam fluorescently modified peptide probe (AbuRPFK(5-Fam)-NH2) was used to test the competitive binding ability of the compounds to the BIR3 domains of XIAP, cIAP1 and cIAP2. The peptide probe (5 nM), XIAP BIR3 (30 nM) or cIAP1 BIR3 (5 nM) or cIAP2 BIR3 (10 nM), and serial diluted compounds were mixed in a test buffer (100 mM potassium phosphate pH 7.5, 100 μg/ml bovine gamma globulin, 0.02% sodium azide, and 1 mM DTT). After incubating the samples at room temperature for 1 hour, the fluorescence polarization values were read using a Tecan microplate reader (FP excitation wavelength 485 nm, […] wavelength 530 nm). The IC50 value was obtained by fitting the curve using nonlinear least square regression with the Graphpad Prism software. The inhibition constant Ki, values were calculated using the Equation Ki, [I]50/([L]50/Kd+[P]0/Kd+1).

Test [2] relates to MDA-MB-231 human breast cancer cells. In words: WST-8 cell proliferation assay, MDA-MB-231. Type of test: cell-based. Particulars: 72 hours. The method, then: (§2) The effects of the compounds provided by the present invention on the proliferation of different cancer cell lines were tested using the WST-8 assay kit. This method is based on the reduction of WST-8 by dehydrogenase in live cells to form a highly water-soluble yellow Formazan dye. Cells were seeded in a 96-well plate and cultured with the test compounds at 37° C. under 5% CO2 for 72 hours. Afterwards, 10% (v/v) WST-8 was added, and the samples were incubated for an additional 2-3 hours. The absorbance of the samples was measured at 450 nm using a Tecan microplate reader, and the concentration of the compound that inhibited 50% of cell proliferation (IC50, nM) was calculated. The activity of the compounds provided by the present invention was determined in three cancer cell lines: MDA-MB-231 human breast cancer cells, SK-OV-3 human ovarian cancer cells, and PANC1 human pancreatic cancer.

For test [3], the target named is BIR3 domain of human cIAP2 (residues 236-342) (Homo sapiens (Human), UniProt Q13489). In words: Fluorescence polarization competitive binding to cIAP2 BIR3. The note with it: FP, peptide probe 5 nM, cIAP2 BIR3 10 nM, 1 hour room temperature. On the procedure: as §1
Sequence of BIR3 domain of human cIAP2 (residues 236-342) (Q13489 236-342): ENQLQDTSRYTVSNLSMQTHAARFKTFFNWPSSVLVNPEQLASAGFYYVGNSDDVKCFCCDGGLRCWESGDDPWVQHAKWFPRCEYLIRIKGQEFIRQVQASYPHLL
Test [4] deals with SK-OV-3 human ovarian cancer cells. As to the kind of experiment: WST-8 cell proliferation assay, SK-OV-3. The class given is cell-based. Particulars: 72 hours, read-out: SKOV-3 IC50. The method, then: as §2
The test system of test [5] is PANC1 human pancreatic cancer. As to the kind of experiment: WST-8 cell proliferation assay, PANC1. Type of test: cell-based. The note with it: PANC-1, 72 hours. On the procedure: as §2
The target in test [6] is BIR3 domain of human cIAP1 (residues 255-364) (Homo sapiens (Human), UniProt Q13490). As to the kind of experiment: Fluorescence polarization competitive binding to cIAP1 BIR3. The note with it: FP, peptide probe 5 nM, cIAP1 BIR3 5 nM, 1 hour room temperature. The method, then: as §1
Sequence of BIR3 domain of human cIAP1 (residues 255-364) (Q13490 255-364): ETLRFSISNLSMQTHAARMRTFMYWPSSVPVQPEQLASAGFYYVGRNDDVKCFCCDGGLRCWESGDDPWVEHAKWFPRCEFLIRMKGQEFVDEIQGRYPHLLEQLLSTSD
The test system of a further test is MDA-MB-231 cancer cells. In words: Inhibitor-induced apoptosis, flow cytometry with Annexin V and propidium iodide. Particulars: 3 hours. The class given is cell-based, human. The method, then: After treating the cells with 10 nM and 100 nM concentrations of the compounds for 3 hours, the induction of apoptosis was analyzed using flow cytometry with Annexin V and propidium iodide staining.

Sequence of BIR3 domain of human XIAP (residues 238-358) (P98170 238-358): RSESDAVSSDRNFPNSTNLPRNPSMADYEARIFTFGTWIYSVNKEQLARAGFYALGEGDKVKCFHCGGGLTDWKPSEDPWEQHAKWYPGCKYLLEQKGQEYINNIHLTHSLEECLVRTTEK

In the case of `CN[C@@H](C)C(=O)N[C@H](C(=O)N1CC(C)(C)c2cc(=O)n(Cc3ccc(F)cc3F)cc21)C1CCCCC1` [Compound I-2-27], the Ki in test [1] stood at 208 nM; in test [3], 5.7 nM; in test [6], 1.9 nM. Besides, the IC50 in test [2] stood at 18 nM; in test [4], 19 nM; in test [5], 96 nM. The “Proportion of apoptotic cells” value in the test with MDA-MB-231 cancer cells (Drug concentration 10 nM) came to 31%; in the test with MDA-MB-231 cancer cells (Drug concentration 100 nM), 46%.
Consider `CN[C@@H](C)C(=O)N[C@H](C(=O)N1CCc2c1cc(Cc1ccc(F)cc1)c(=O)n2C)C1CCCCC1` [Compound I-3-1, (S)-N-((S)-1-cyclohexyl-2-(6-(4-fluorobenzyl)-4-methyl-5-oxo-2,3,4,5-tetrahydro-1H-pyrrolo[3,2-b]pyridine-1-yl)-2-oxyethyl)-2-(methylamino)propanamide], for which the Ki in test [1] was 30.7 nM; in test [3] it was 2.6 nM; in test [6] it was 1.2 nM. For the same molecule, the values for the IC50 in test [2], in test [4] and in test [5] were 5 nM, 4 nM and 58 nM, respectively. Further, the results for the “Proportion of apoptotic cells” value with MDA-MB-231 cancer cells (Drug concentration 10 nM) and in the test with MDA-MB-231 cancer cells (Drug concentration 100 nM) were 36% and 48%, respectively.
`CN[C@@H](C)C(=O)N[C@H](C(=O)N1CCc2cc(=O)n(Cc3ccc(F)cc3O)cc21)C(C)(C)C` [Compound I-2-23]: the Ki in test [1] came out at 53.6 nM; in test [3], 2.3 nM; in test [6] it was 1 nM. Besides, the IC50 in test [2] is 9 nM; in test [4] it was 5 nM; in test [5], 67 nM. The figures for the “Proportion of apoptotic cells” value in the test on MDA-MB-231 cancer cells (Drug concentration 10 nM) and in the test with MDA-MB-231 cancer cells (Drug concentration 100 nM) were 35% and 50%, respectively.
For `CN[C@@H](C)C(=O)N[C@H](C(=O)N1CCc2c1cc(Cc1ccc(F)cc1F)c(=O)n2C)C(C)(C)C` [Compound I-3-3], the Ki was found to be 13.7 nM in test [1], 2.2 nM in test [3] and 1.4 nM in test [6]. Moreover, the IC50 in test [2] is 2 nM; in test [4] it was 1 nM; in test [5], 37 nM. Besides, the figures for the “Proportion of apoptotic cells” value in the test on MDA-MB-231 cancer cells (Drug concentration 10 nM) and with MDA-MB-231 cancer cells (Drug concentration 100 nM) were 43% and 55%, respectively.
Take `CN[C@@H](C)C(=O)N[C@H](C(=O)N1CCc2[nH]c(=O)c(Cc3ccc(F)cc3F)cc21)C(C)(C)C` [Compound I-4-2]: the values for the inhibition constant (Ki) in test [1], in test [3] and in test [6] were 9.4 nM, 2.4 nM and 1.3 nM, respectively. Moreover, the IC50 amounted to 4 nM in test [2], 1 nM in test [4] and 16 nM in test [5]. Also, the “Proportion of apoptotic cells” value in the test on MDA-MB-231 cancer cells (Drug concentration 10 nM) came to 41%; in the test with MDA-MB-231 cancer cells (Drug concentration 100 nM) it was 54%.
